For one data set, the target named is T1, ROCK2 (Homo sapiens, UniProt O75116).
T1 construct: purchased DiscoverX (KINOMEscan KdELECT service); host or cells: E. coli BL21-derived (T7 phage) or HEK-293
The experiment in a line: KINOMEscan KdELECT kinase binding assay, ROCK2. To be noted: equilibrium dissociation constant, 11-point 3-fold dilution series. The protocol:
(§1) The ROCK1 and ROCK2 kinase binding affinities of compounds in this invention were determined by DiscoverX's KINOMEscan™ KdELECT technology (https://www.discoverx.com/kinomescan-elect-kinase-screening-and-profiling-services): Kinase-tagged T7 phage strains were prepared in an E. coli host derived from the BL21 strain. E. coli were grown to log-phase and infected with T7 phage and incubated with shaking at 32° C. until lysis. The lysates were centrifuged and filtered to remove cell debris. The remaining kinases were produced in HEK-293 cells and subsequently tagged with DNA for qPCR detection. Streptavidin-coated magnetic beads were treated with biotinylated small molecule ligands for 30 minutes at room temperature to generate affinity resins for kinase assays. The liganded beads were blocked with excess biotin and washed with blocking buffer (SeaBlock (Pierce), 1% BSA, 0.05% Tween 20, 1 mM DTT) to remove unbound ligand and to reduce nonspecific binding. […] Test compounds were prepared as […] in 100% DMSO. Kds were determined using an […] 3-fold compound dilution series with three DMSO control points. […] The compounds were then diluted directly into the assays such that the final concentration of DMSO was 0.9%. All reactions performed in polypropylene 384-well plate. Each was a final volume of 0.02 ml. […] The kinase concentration in the eluates was measured by qPCR.

Another data set deals with T2, ROCK1 (Homo sapiens, UniProt Q13464).
T2 construct: purchased DiscoverX (KINOMEscan KdELECT service); host or cells: E. coli BL21-derived (T7 phage) or HEK-293
The experiment in a line: KINOMEscan KdELECT kinase binding assay, ROCK1. The settings on record: equilibrium dissociation constant, 11-point 3-fold dilution series. The method, then: as §1

Another data set relates to male CD-1 mice. The experiment in a line: Mean arterial pressure after bile duct ligation in CD-1 mice. The class given is in vivo. The settings on record: BDL CD-1 mice, 10 mg/kg orally BID for 10 days, carotid catheter under isoflurane. The method, then: The experiments were performed on male CD-1 mice (10-11 week-old), purchased from Charles River Laboratories, MA. After arrival, the animals were housed in the Angion Biomedica animal care facility and allowed 5 days for acclimatization in room having an ambient temperature of 23±2° C. and 12 hr dark/light cycle. The animals were fed normal rodent chow and tap water was provided ad libitum. All the animal experimental protocols were approved by the Institutional Animal Care and Use Committee at the Angion Biomedica.
For bile duct ligation (BDL), we performed midline laparotomy of a length of approximately 1.5-2 cm by cutting the cutis plus fascia with a blunt end surgical scissor. The bile duct was then exposed by caudal movement of the gut. […] Animals were allowed to recover under heating pads and were monitored closely for signs of discomfort or pain.
After 24 hrs of bile duct ligation, the CD-1 mice (N=8-10 per group,) were treated with normal saline as vehicle and the Fasudil (10 mg/kg/body weight) and Compound of Ex. 1 (10 mg/kg body weight) groups were treated orally (BID) for 10 days. […] After 10 days of treatment, animals were anesthetized and mean arterial pressure was measured.
Mice were anaesthetized using isoflurane. […] The animals were maintained on heating pads throughout the surgery and temperature was recorded by inserting a temperature probe in the rectum. […]

Data set [1] relates to BDL model, adult male C57BLU6 mice. The experiment in a line: Biliary obstruction model (bile duct ligation, BDL). The class given is in vivo. To be noted: 10 mg/kg PO BID; for MAP (mean arterial pressure) versus sham and BDL+vehicle: BDL C57BLU6 mice, day 9, FIG. 1. The method, then:
Adult male C57BLU6 mice were submitted to standard bile duct ligation (BDL model: Luo, W., Meng, Y., Ji, H. L., Pan, C. Q., Huang, S., Yu, C. H., Xiao, L. M., Cui, K., Ni, S. Y., Zhang, Z. S., Li, X. Spironolactone lowers portal hypertension by inhibiting liver fibrosis, ROCK-2 activity and activating NO/PKG pathway in the bile-duct-ligated rat. PLoS One 2012, 7(3), e34230) and treated with vehicle (n=7; 50% PEG300+10% tween 80+40% saline, the formulation for Ex. 1) or Ex. 1 (n=3; 10 mg/kg, PO, BID), starting a day after BDL surgery. In this study, animals were sacrificed 9 days after BDL. A subset of BDL animals was treated with fasudil (n=2; 10 mg/kg, PO, BID) to compare hemodynamic effects (on day 9) of a ROCK2-selective inhibitor vs. a dual ROCK1/2 inhibitor in this model of liver injury/disease. A sham group served as control.
The BDL model is a model of cholestatic injury and is associated with both inflammation and biliary sclerosis. This was evident even by day 9 in the BDL+vehicle-treated cohort (p<0.01 vs. sham). […] Treatment with a compound of the invention was also associated with a reduction in biliary inflammation (H&E sections, FIG. 4A) and the necro-inflammatory score (FIG. 4B).

T2 sequence (Q13464 whole entry): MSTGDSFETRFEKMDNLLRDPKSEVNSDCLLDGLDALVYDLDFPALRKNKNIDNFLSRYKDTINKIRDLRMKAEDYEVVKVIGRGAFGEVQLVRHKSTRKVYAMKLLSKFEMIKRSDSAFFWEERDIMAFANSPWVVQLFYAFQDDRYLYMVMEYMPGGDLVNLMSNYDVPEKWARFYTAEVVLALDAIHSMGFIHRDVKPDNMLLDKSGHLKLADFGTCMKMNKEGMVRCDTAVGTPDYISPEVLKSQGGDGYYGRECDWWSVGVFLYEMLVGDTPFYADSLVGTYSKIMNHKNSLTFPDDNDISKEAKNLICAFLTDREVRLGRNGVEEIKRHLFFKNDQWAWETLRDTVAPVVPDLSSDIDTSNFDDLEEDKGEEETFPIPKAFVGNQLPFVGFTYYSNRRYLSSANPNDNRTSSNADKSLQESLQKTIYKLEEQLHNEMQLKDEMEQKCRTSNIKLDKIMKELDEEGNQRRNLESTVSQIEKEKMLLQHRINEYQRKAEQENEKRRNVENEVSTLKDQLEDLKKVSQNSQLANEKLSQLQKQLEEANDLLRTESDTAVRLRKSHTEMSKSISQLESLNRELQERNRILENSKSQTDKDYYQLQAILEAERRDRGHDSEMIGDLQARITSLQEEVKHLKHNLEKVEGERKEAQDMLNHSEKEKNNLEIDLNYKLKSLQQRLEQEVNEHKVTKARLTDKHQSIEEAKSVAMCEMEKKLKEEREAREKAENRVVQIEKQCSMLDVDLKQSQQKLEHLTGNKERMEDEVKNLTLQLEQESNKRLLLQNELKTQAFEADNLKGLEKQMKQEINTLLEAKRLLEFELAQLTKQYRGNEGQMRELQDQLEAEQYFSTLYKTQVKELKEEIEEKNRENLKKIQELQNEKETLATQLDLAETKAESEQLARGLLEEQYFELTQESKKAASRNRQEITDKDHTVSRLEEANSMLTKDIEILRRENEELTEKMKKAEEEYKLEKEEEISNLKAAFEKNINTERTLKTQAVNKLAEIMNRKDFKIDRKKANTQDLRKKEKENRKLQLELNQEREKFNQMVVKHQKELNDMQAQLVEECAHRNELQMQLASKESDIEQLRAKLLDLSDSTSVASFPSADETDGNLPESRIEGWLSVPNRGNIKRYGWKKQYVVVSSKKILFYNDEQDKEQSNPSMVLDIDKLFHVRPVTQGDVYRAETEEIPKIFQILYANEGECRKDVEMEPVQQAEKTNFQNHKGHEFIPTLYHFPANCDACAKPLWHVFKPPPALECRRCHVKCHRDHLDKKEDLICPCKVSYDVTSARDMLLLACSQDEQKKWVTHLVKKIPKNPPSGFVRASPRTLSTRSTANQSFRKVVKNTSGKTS
T1 sequence (O75116 whole entry): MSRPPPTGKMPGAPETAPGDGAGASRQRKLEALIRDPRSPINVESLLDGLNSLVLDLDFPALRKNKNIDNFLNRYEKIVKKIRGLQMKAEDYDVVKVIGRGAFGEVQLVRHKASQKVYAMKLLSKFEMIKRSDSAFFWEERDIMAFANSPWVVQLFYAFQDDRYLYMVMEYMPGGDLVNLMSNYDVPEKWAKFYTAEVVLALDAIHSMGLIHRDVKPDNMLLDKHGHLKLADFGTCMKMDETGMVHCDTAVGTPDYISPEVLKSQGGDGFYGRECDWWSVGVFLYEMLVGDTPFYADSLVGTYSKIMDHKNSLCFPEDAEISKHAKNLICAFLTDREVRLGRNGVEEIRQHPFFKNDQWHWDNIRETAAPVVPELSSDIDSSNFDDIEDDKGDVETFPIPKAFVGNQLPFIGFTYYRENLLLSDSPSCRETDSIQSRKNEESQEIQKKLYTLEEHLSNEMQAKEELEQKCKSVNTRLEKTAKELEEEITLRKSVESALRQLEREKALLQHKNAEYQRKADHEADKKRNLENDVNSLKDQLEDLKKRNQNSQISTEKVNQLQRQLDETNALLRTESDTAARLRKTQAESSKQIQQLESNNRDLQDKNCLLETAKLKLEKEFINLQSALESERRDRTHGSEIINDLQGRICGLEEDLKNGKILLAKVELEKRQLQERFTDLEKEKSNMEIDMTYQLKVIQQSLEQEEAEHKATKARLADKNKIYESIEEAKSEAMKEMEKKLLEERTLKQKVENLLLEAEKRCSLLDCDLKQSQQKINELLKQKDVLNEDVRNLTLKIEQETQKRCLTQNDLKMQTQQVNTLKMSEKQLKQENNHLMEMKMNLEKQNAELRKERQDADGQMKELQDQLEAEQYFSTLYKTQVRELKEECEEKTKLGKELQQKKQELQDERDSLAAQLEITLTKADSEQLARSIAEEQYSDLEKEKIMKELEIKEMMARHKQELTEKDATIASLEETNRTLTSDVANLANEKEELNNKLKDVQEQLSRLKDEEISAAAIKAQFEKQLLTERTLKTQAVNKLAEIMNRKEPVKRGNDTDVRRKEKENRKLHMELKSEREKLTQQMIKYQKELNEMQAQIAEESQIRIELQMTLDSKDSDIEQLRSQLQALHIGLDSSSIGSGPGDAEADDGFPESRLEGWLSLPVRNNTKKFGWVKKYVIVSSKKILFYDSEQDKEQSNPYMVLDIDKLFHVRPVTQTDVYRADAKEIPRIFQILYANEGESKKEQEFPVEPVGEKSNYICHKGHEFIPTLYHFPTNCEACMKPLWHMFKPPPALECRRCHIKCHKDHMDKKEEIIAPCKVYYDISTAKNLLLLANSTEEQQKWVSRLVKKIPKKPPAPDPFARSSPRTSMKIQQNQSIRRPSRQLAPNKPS

Take `COc1ccc2c(c1)CN(c1nccc(-c3nccc(/C=C/c4ccncc4)n3)n1)C2` [Ex. 1, (E)-5-Methoxy-2-(4-(2-(pyridine-4-yl)vinyl)-[2,4′-bipyrimidin]-2′-yl)isoindoline]: the Kd on ROCK2 is 140 nM; at ROCK1, greater than 30000 nM. Also, the “change (decrease) in mean arterial blood pressure” value in the data set on male CD-1 mice was “did not cause any change”. Further, in data set [1], the “MAP (mean arterial pressure) versus sham and BDL+vehicle” value was “not different”. Moreover, the “biliary thickening (bile duct wall thickness)” value in data set [1] (BDL mice, day 9, H&E sections and quantitative analysis, FIG. 2 and 3) is reported as “reduction in biliary thickening”.
For the molecule `COc1ccc2c(c1)CN(c1nccc(-c3nccc(/C=C/c4ccnc5ccccc45)n3)n1)C2` [Ex. 3, (E)-4-(2-(2′-(5-Methoxyisoindolin-2-yl)-[2,4′-bipyrimidin]-4-yl)vinyl)quinoline], the Kd on ROCK2 and on ROCK1 was greater than 30000 nM in each case.
Take `COc1ccc2c(c1)CN(c1nccc(-c3nccc(/C=C/c4ccnc5[nH]ccc45)n3)n1)C2` [Ex. 4, (E)-4-(2-(2′-(5-Methoxyisoindolin-2-yl)-[2,4′-bipyrimidin]-4-yl)vinyl)-1H-pyrrolo[2,3-b]pyridine]: the Kd is 1800 nM at ROCK2 and 8000 nM on ROCK1.
With `COc1ccc2c(c1)CN(c1nccc(-c3nccc(/C=C/c4ccnc(N)n4)n3)n1)C2` [Ex. 5, (E)-4-(2-(2′-(5-Methoxyisoindolin-2-yl)-[2,4′-bipyrimidin]-4-yl)vinyl)pyrimidin-2-amine], the Kd at ROCK2 was 2000 nM; on ROCK1, greater than 30000 nM.
Turning to `Oc1ccc2c(c1)CN(c1nccc(-c3nccc(/C=C/c4ccncc4)n3)n1)C2` [Ex. 6, (E)-2-(4-(2-(Pyridin-4-yl)vinyl)-[2,4′-bipyrimidin]-2′-yl)isoindolin-5-ol], the Kd was 120 nM at ROCK2 and greater than 30000 nM on ROCK1.
Turning to `O=S(=O)(Oc1ccc2c(c1)CN(c1nccc(-c3nccc(/C=C/c4ccncc4)n3)n1)C2)C(F)(F)F` [Ex. 7, (E)-2-(4-(2-(Pyridin-4-yl)vinyl)-[2,4′-bipyrimidin]-2′-yl)isoindolin-5-yl Trifluoromethanesulfonate], the Kd at ROCK2 is 910 nM; at ROCK1 it was greater than 30000 nM.
Take `N#Cc1ccc2c(c1)CN(c1nccc(-c3nccc(/C=C/c4ccncc4)n3)n1)C2` [Ex. 8, (E)-2-(4-(2-(Pyridin-4-yl)vinyl)-[2,4′-bipyrimidin]-2′-yl)isoindoline-5-carbonitrile]: the Kd at ROCK2 came to 110 nM; at ROCK1, 680 nM.
Take `CN(C)CCOc1ccc2c(c1)CN(c1nccc(-c3nccc(/C=C/c4ccncc4)n3)n1)C2` [Ex. 9, (E)-N,N-Dimethyl-2-((2-(4-(2-(pyridin-4-yl)vinyl)-[2,4′-bipyrimidin]-2′-yl)isoindolin-5-yl)oxy)ethanamine]: the Kd at ROCK2 was determined as 85 nM; at ROCK1 it was 2400 nM.
Turning to `CNC(=O)COc1ccc2c(c1)CN(c1nccc(-c3nccc(/C=C/c4ccncc4)n3)n1)C2` [Ex. 11, (E)-N-Methyl-2-((2-(4-(2-(pyridin-4-yl)vinyl)-[2,4′-bipyrimidin]-2′-yl)isoindolin-5-yl)oxy)acetamide], the values for the Kd at ROCK2 and on ROCK1 were 110 nM and 1100 nM, respectively.
Regarding `CCNC(=O)COc1ccc2c(c1)CN(c1nccc(-c3nccc(/C=C/c4ccncc4)n3)n1)C2` [Ex. 12, (E)-N-Ethyl-2-((2-(4-(2-(pyridin-4-yl)vinyl)-[2,4′-bipyrimidin]-2′-yl)isoindolin-5-yl)oxy)acetamide], the Kd at ROCK2 came out at 180 nM; on ROCK1, 15000 nM.
On to `CC(C)NC(=O)COc1ccc2c(c1)CN(c1nccc(-c3nccc(/C=C/c4ccncc4)n3)n1)C2` [Ex. 13, (E)-N-Isopropyl-2-((2-(4-(2-(pyridin-4-yl)vinyl)-[2,4′-bipyrimidin]-2′-yl)isoindolin-5-yl)oxy)acetamide], for which the Kd at ROCK2 turned out to be 130 nM; on ROCK1, 13000 nM.
For the molecule `Fc1ccc2c(c1)CN(c1nccc(-c3nccc(/C=C/c4ccncc4)n3)n1)C2` [Ex. 14, (E)-5-Fluoro-2-(4-(2-(pyridine-4-yl)vinyl)-[2,4′-bipyrimidin]-2′-yl)isoindoline], the Kd on ROCK2 turned out to be 1200 nM; at ROCK1, 26000 nM.
In the case of `O=S(=O)(c1cccc2cnccc12)N1CCCNCC1` [fasudil, reference compound], the “change (decrease) in mean arterial blood pressure” value in the data set on male CD-1 mice was roughly 26 mm Hg. The “MAP (mean arterial pressure) versus sham and BDL+vehicle” value in data set [1] is recorded as “decreased MAP”.
